From US10543212B2, “Substituted amines for treating cardiac diseases” (Cardurion Pharmaceuticals, LLC, priority 2017, dated 2020)

These compounds were tested against T1, Full-length, GST-tagged, human CaMKIIδ (Homo sapiens, UniProt Q13557) (assay: CaMKIIδ binding assay (TR-FRET with BODIPY-labeled probe ligand)). Conditions: Table 2; activity class for CaMKIIδ.
T1 construct: Full-Length, Glutathione-S-Transferase(GST)-Tagged, Human CaMKIIδ was purchased from Carna Biosciences; purchased Carna Biosciences 02-111
In short: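 Compounds were tested as 4-fold, eight-point series for 1 hr at room temperature, and IC50 was obtained by logistic fitting against a 3 μM parent-compound control. Signal came from displacement of a 300 nM BODIPY ligand from 0.5 nM GST-CaMKIIδ, detected via Tb-anti-GST in calmodulin/Ca2+ (pH 7.6).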

T1 sequence (Q13557 1-478 isoform Q13557-12): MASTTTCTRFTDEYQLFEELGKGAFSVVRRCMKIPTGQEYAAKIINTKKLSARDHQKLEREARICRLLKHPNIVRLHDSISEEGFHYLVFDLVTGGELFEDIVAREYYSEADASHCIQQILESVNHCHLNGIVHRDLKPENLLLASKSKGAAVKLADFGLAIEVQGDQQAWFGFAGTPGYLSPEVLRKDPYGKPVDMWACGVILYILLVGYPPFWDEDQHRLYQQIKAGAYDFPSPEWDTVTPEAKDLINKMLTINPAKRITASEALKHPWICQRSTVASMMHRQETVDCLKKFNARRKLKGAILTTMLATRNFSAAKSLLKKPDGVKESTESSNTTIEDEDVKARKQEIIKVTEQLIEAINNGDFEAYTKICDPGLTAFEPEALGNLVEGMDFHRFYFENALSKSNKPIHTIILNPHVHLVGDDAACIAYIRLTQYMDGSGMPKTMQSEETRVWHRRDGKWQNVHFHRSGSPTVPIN

Compound	IC50
C[C@@H](Cn1cnnn1)Oc1cc(-c2cnc(Nc3cn([C@@H]4C[C@H]5CC[C@@H](C4)N5C4CCOCC4)nc3C(F)(F)F)nc2)ccc1Cl [Example 703, 5-(3-(((S)-1-(1H-tetrazol-1-yl)propan-2-yl)oxy)-4-chlorophenyl)-N-(1-((1R,3s,5S)-8-(tetrahydro-2H-pyran-4-yl)-8-azabicyclo[3.2.1]octan-3-yl)-3-(trifluoromethyl)-1H-pyrazol-4-yl)pyrimidin-2-amine]	< 10 nM
C[C@@H](Cn1cnnn1)Oc1cc(-c2cnc(Nc3cc(N4CCN(C5CCOCC5)CC4)ncc3OC(F)(F)F)nc2)ccc1Cl [Example 705, (S)-5-(3-((1-(1H-tetrazol-1-yl)propan-2-yl)oxy)-4-chlorophenyl)-N-(2-(4-(tetrahydro-2H-pyran-4-yl)piperazin-1-yl)-5-(trifluoromethoxy)pyridin-4-yl)pyrimidin-2-amine]	< 10 nM
C[C@@H](Cn1cnnn1)Oc1cc(-c2cnc(Nc3cn(C4CCN(C5CCOCC5)CC4)nc3C(F)(F)F)nc2)ccc1Cl [Example 706, (S)-5-(3-((1-(1H-tetrazol-1-yl)propan-2-yl)oxy)-4-chlorophenyl)-N-(1-(1-(tetrahydro-2H-pyran-4-yl)piperidin-4-yl)-3-(trifluoromethyl)-1H-pyrazol-4-yl)pyrimidin-2-amine]	< 10 nM
C[C@@H](Cn1cnnn1)Oc1cc(-c2cnc(Nc3cn(Cc4ccccn4)nc3C(F)(F)F)nc2)ccc1Cl [Example 707, (S)-5-(3-((1-(1H-tetrazol-1-yl)propan-2-yl)oxy)-4-chlorophenyl)-N-(1-(pyridin-2-ylmethyl)-3-(trifluoromethyl)-1H-pyrazol-4-yl)pyrimidin-2-amine]	10 to 100 nM
C[C@@H](Cn1cnnn1)Oc1cc(-c2cnc(Nc3cn(Cc4cccnc4)nc3C(F)(F)F)nc2)ccc1Cl [Example 708, (S)-5-(3-((1-(1H-tetrazol-1-yl)propan-2-yl)oxy)-4-chlorophenyl)-N-(1-(pyridin-3-ylmethyl)-3-(trifluoromethyl)-1H-pyrazol-4-yl)pyrimidin-2-amine]	10 to 100 nM
C[C@@H](Cn1cnnn1)Oc1cc(-c2cnc(Nc3cn(Cc4ccncc4)nc3C(F)(F)F)nc2)ccc1Cl [Example 709, (S)-5-(3-((1-(1H-tetrazol-1-yl)propan-2-yl)oxy)-4-chlorophenyl)-N-(1-(pyridin-4-ylmethyl)-3-(trifluoromethyl)-1H-pyrazol-4-yl)pyrimidin-2-amine]	10 to 100 nM
C[C@@H](Cn1cnnn1)Oc1cc(-c2cnc(Nc3cn(CC4CCCO4)nc3C(F)(F)F)nc2)ccc1Cl (stereo partly drawn) [Example 710, 5-(3-(((S)-1-(1H-tetrazol-1-yl)propan-2-yl)oxy)-4-chlorophenyl)-N-(1-((tetrahydrofuran-2-yl)methyl)-3-(trifluoromethyl)-1H-pyrazol-4-yl)pyrimidin-2-amine]	10 to 100 nM
C[C@@H](Cn1cnnn1)Oc1cc(-c2cnc(Nc3cc(C(F)(F)F)n(C)n3)nc2)ccc1Cl [Example 711, (S)-5-(3-((1-(1H-tetrazol-1-yl)propan-2-yl)oxy)-4-chlorophenyl)-N-(1-methyl-5-(trifluoromethyl)-1H-pyrazol-3-yl)pyrimidin-2-amine]	≥ 100 nM
C[C@@H](Cn1cnnn1)Oc1cc(-c2cnc(Nc3cn(CC4CCCCO4)nc3C(F)(F)F)nc2)ccc1Cl (stereo partly drawn) [Example 712, 5-(3-(((S)-1-(1H-tetrazol-1-yl)propan-2-yl)oxy)-4-chlorophenyl)-N-(1-((tetrahydro-2H-pyran-2-yl)methyl)-3-(trifluoromethyl)-1H-pyrazol-4-yl)pyrimidin-2-amine]	10 to 100 nM
CC(C(N)=O)n1cc(Nc2ncc(-c3ccc(Cl)c(O[C@@H](C)Cn4cnnn4)c3)cn2)c(C(F)(F)F)n1 (stereo partly drawn) [Example 713, 2-(4-((5-(3-(((S)-1-(1H-tetrazol-1-yl)propan-2-yl)oxy)-4-chlorophenyl)pyrimidin-2-yl)amino)-3-(trifluoromethyl)-1H-pyrazol-1-yl)propanamide]	< 10 nM
C[C@@H](Cn1cnnn1)Oc1cc(-c2cnc(Nc3ccn(Cc4ccccc4)n3)nc2)ccc1Cl [Example 714, (S)-5-(3-((1-(1H-tetrazol-1-yl)propan-2-yl)oxy)-4-chlorophenyl)-N-(1-benzyl-1H-pyrazol-3-yl)pyrimidin-2-amine]	10 to 100 nM
C[C@@H](Cn1cnnn1)Oc1cc(-c2cnc(Nc3ccn(C(C)(C)C)n3)nc2)ccc1Cl [Example 715, (S)-5-(3-((1-(1H-tetrazol-1-yl)propan-2-yl)oxy)-4-chlorophenyl)-N-(1-(tert-butyl)-1H-pyrazol-3-yl)pyrimidin-2-amine]	≥ 100 nM
CC(C#N)n1cc(Nc2ncc(-c3ccc(Cl)c(O[C@@H](C)Cn4cnnn4)c3)cn2)c(C(F)(F)F)n1 (stereo partly drawn) [Example 716, 2-(4-((5-(3-(((S)-1-(1H-tetrazol-1-yl)propan-2-yl)oxy)-4-chlorophenyl)pyrimidin-2-yl)amino)-3-(trifluoromethyl)-1H-pyrazol-1-yl)propanenitrile]	10 to 100 nM
C[C@@H](Cn1cnnn1)Oc1cc(-c2cnc(Nc3cn(C4C[C@@H]5CC[C@H]4C5)nc3C(F)(F)F)nc2)ccc1Cl (stereo partly drawn) [Example 717, 5-(3-(((S)-1-(1H-tetrazol-1-yl)propan-2-yl)oxy)-4-chlorophenyl)-N-(1-((1S,4R)-bicyclo[2.2.1]heptan-2-yl)-3-(trifluoromethyl)-1H-pyrazol-4-yl)pyrimidin-2-amine]	≥ 100 nM
C[C@@H](Cn1cnnn1)Oc1cc(-c2cnc(Nc3cn(CCCO)nc3C(F)(F)F)nc2)ccc1Cl [Example 718, (S)-3-(4-((5-(3-((1-(1H-tetrazol-1-yl)propan-2-yl)oxy)-4-chlorophenyl)pyrimidin-2-yl)amino)-3-(trifluoromethyl)-1H-pyrazol-1-yl)propan-1-ol]	10 to 100 nM
C[C@@H](Cn1cnnn1)Oc1cc(-c2cnc(Nc3cc(-c4ccccc4)nn3C)nc2)ccc1Cl [Example 719, (S)-5-(3-((1-(1H-tetrazol-1-yl)propan-2-yl)oxy)-4-chlorophenyl)-N-(1-methyl-3-phenyl-1H-pyrazol-5-yl)pyrimidin-2-amine]	10 to 100 nM
C[C@@H](Cn1cnnn1)Oc1cc(-c2cnc(Nc3cc(C(F)(F)F)nn3C)nc2)ccc1Cl [Example 720, (S)-5-(3-((1-(1H-tetrazol-1-yl)propan-2-yl)oxy)-4-chlorophenyl)-N-(1-methyl-3-(trifluoromethyl)-1H-pyrazol-5-yl)pyrimidin-2-amine]	10 to 100 nM
C[C@@H](Cn1cnnn1)Oc1cc(-c2cnc(Nc3cn([C@@H]4Cc5ccccc5[C@@H]4O)nc3C(F)(F)F)nc2)ccc1Cl [Example 721, (1S,2R)-2-(4-((5-(3-(((S)-1-(1H-tetrazol-1-yl)propan-2-yl)oxy)-4-chlorophenyl)pyrimidin-2-yl)amino)-3-(trifluoromethyl)-1H-pyrazol-1-yl)-2,3-dihydro-1H-inden-1-ol]	10 to 100 nM
C[C@@H](Cn1cnnn1)Oc1cc(-c2cnc(Nc3cn(Cc4n[nH]c(=O)[nH]4)nc3C(F)(F)F)nc2)ccc1Cl [Example 722, (S)-5-((4-((5-(3-((1-(1H-tetrazol-1-yl)propan-2-yl)oxy)-4-chlorophenyl)pyrimidin-2-yl)amino)-3-(trifluoromethyl)-1H-pyrazol-1-yl)methyl)-2,4-dihydro-3H-1,2,4-triazol-3-one]	≥ 100 nM
CC(C)n1ccc(Nc2ncc(-c3ccc(Cl)c(O[C@@H](C)Cn4cnnn4)c3)cn2)n1 [Example 723, (S)-5-(3-((1-(1H-tetrazol-1-yl)propan-2-yl)oxy)-4-chlorophenyl)-N-(1-isopropyl-1H-pyrazol-3-yl)pyrimidin-2-amine]	10 to 100 nM
C[C@@H](Cn1cnnn1)Oc1cc(-c2cnc(Nc3cn(C4Cc5ccccc5C4)nc3C(F)(F)F)nc2)ccc1Cl [Example 724, (S)-5-(3-((1-(1H-tetrazol-1-yl)propan-2-yl)oxy)-4-chlorophenyl)-N-(1-(2,3-dihydro-1H-inden-2-yl)-3-(trifluoromethyl)-1H-pyrazol-4-yl)pyrimidin-2-amine]	≥ 100 nM
C[C@@H](Cn1cnnn1)Oc1cc(-c2cnc(Nc3cnn(CC4CC4)c3)nc2)ccc1Cl [Example 725, (S)-5-(3-((1-(1H-tetrazol-1-yl)propan-2-yl)oxy)-4-chlorophenyl)-N-(1-(cyclopropylmethyl)-1H-pyrazol-4-yl)pyrimidin-2-amine]	10 to 100 nM
C#CCn1cc(Nc2ncc(-c3ccc(Cl)c(O[C@@H](C)Cn4cnnn4)c3)cn2)c(C(F)(F)F)n1 [Example 726, (S)-5-(3-((1-(1H-tetrazol-1-yl)propan-2-yl)oxy)-4-chlorophenyl)-N-(1-(prop-2-yn-1-yl)-3-(trifluoromethyl)-1H-pyrazol-4-yl)pyrimidin-2-amine]	10 to 100 nM
C[C@@H](Cn1cnnn1)Oc1cc(-c2cnc(Nc3cn(CCOC(F)(F)F)nc3C(F)(F)F)nc2)ccc1Cl [Example 727, (S)-5-(3-((1-(1H-tetrazol-1-yl)propan-2-yl)oxy)-4-chlorophenyl)-N-(1-(2-(trifluoromethoxy)ethyl)-3-(trifluoromethyl)-1H-pyrazol-4-yl)pyrimidin-2-amine]	10 to 100 nM
C[C@@H](Cn1cnnn1)Oc1cc(-c2cnc(Nc3cn(CC(O)C(F)(F)F)nc3C(F)(F)F)nc2)ccc1Cl (stereo partly drawn) [Example 728, 3-(4-((5-(3-(((S)-1-(1H-tetrazol-1-yl)propan-2-yl)oxy)-4-chlorophenyl)pyrimidin-2-yl)amino)-3-(trifluoromethyl)-1H-pyrazol-1-yl)-1,1,1-trifluoropropan-2-ol]	10 to 100 nM
C[C@@H](Cn1cnnn1)Oc1cc(-c2cnc(Nc3cc(-c4cccs4)nn3C)nc2)ccc1Cl [Example 729, (S)-5-(3-((1-(1H-tetrazol-1-yl)propan-2-yl)oxy)-4-chlorophenyl)-N-(1-methyl-3-(thiophen-2-yl)-1H-pyrazol-5-yl)pyrimidin-2-amine]	10 to 100 nM
